Data set [1] deals with T1, CCR9 (Homo sapiens, UniProt P51686).
T1 construct: host or cells: HEK293T, transient
T1 sequence (P51686 1-369): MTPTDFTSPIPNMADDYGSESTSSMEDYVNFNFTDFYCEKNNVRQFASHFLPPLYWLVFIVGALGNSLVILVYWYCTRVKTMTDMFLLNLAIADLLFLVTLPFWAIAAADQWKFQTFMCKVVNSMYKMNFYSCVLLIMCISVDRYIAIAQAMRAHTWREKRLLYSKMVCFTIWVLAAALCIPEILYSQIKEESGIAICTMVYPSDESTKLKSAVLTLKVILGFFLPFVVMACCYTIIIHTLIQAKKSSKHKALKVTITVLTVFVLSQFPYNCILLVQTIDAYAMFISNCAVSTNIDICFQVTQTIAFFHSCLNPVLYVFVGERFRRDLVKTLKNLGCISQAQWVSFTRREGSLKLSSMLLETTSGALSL
As to the kind of experiment: NanoBRET-based assay for binding to the IABS of CCR9, as previously reported. The conditions noted are these: up to a concentration of 20 μM. An excerpt:
With 6 (Figure 1), a first lead structure for intracellular CCR1 inhibition that features an approximately 20-fold CCR1 over CCR2 selectivity was previously discovered by Ortiz Zacarías et al.([33]) In order to discover new chemotypes for selective CCR1 over CCR2 inhibition, we aimed to apply our novel NanoBRET competition binding assay for CCR1 in combination with our recently published CCR2 competition binding assay based on 7.[47] In our first attempt, we screened a small in-house library enriched with intracellular GPCR ligands and structural analogues thereof. […] Additionally, we tested 23 for binding to the IABS of CCR9 and CXCR2 using our recently reported NanoBRET-based assay platform (Figure 6C).[44],[45] In the course of these studies, we detected no binding of 23 to CCR9 and CXCR2 up to a concentration of 20 μM. Since cell lineage-dependent effects have been observed for CCR1 antagonists,[59] we studied the CCR1 over CCR2 selectivity of 23 by using a previously reported radioligand binding assay with membrane preparations from osteosarcoma (U2OS) cells stably expressing human CCR1 or CCR2.[33] […] In agreement with these previous reports,[33] we observed a reduction in CCR1 over CCR2 selectivity when moving from membrane-based binding assays to cell-based functional assays. […]
On the technique in general: Bioluminescence resonance energy transfer reports proximity on the nanometre scale.

Data set [2] can be described thus: Kinetic solubility assay (nephelometry). The format is physicochemical. As to conditions: aqueous buffer, kinetic from dmso stock; saline phosphate buffer pH 7.25, 1% DMSO, 25 °C, ± SD; read-out: kinetic solubility Skin.

Values after ≈ are worked out from the molar mass of the structure shown.

A word on the kinetic solubility: it is solubility judged after dilution from a stock solution rather than from solid. As to `O=C(C1=C(O)C(=O)N(CCc2ccc(O)cc2)C1c1ccc(F)cc1)c1ccccc1` (racemic) [compound 23], in data set [1], the “Binding to the IABS of CCR9” value is on record as “no binding”. The kinetic solubility at 10 s in data set [2] turned out to be 442 ± 27 µM (≈ 185 µg/mL).
